US6417362B1, “Nitrogenous heterocyclic compounds and hyperlipemia remedy containing the same” (Meiji Seika Kaisha, Ltd., priority 1997, dated 2002)

Legend:
[1] = system: secretion of apolipoprotein B in cell strain HepG2 derived from hepatoma; assay: Inhibitory activity against secretion of apolipoprotein B (sandwich ELISA); assay type: cell-based; conditions: Homo sapiens; HepG2 cells, test compound at final concentration of 3 μM
Experimental: Inhibitory activity against secretion of apolipoprotein B
The inhibitory activity of the compounds according to the present invention against the secretion of apolipoprotein B was studied using cell strain HepG2 derived from hepatoma.
The test was carried out by the method of Nagata et al. (Biochem. Pharmacol., 40, 843 (1990)) and the method of Furukawa et al. (J. Biol. Chem., 267, 22630 (1992)) which had been partly modified. Specifically, HepG2 cells were cultivated in a Dulbecco's modified Eagle's medium (DMEM), containing 10% fetal calf serum (FCS), 100 units/ml penicillin, and 100 μg/ml streptomycin, placed in 96-well plates. Thereafter, the medium was replaced with DMEM containing 1% bovine serum albumin, and the test compound was simultaneously added to a final concentration of 3 μM or not added, followed by cultivation. Three hr after the replacement of the medium, acetic acid was added to a final concentration of 1 mM, followed by cultivation for additional 4 hr. The amount of apolipoprotein B secreted in the supernatant of the culture thus obtained was quantitatively determined by the sandwich ELISA method. In this case, goat anti-human apolipoprotein B polyclonal antibody (CHEMICON) was used as a primary antibody, and mouse anti-human apolipoprotein B monoclonal antibody peroxidase conjugate (BIOSYS) was used as a secondary antibody.
The inhibition (%) against the secretion of apolipoprotein B was calculated by the following equation:
Inhibition (%) of secretion of apolipoprotein B={1-(amount of apolipoprotein B secreted in the presence of drug)/(amount of apolipoprotein B secreted in the absence of drug)}×100

[2] = system: biosynthesis of triglycerides in cell strain HepG2 derived from human hepatoma; assay: Inhibitory activity against biosynthesis of triglycerides (14C-acetic acid incorporation); assay type: cell-based; conditions: HepG2 cells, test compound at final concentration of 3 μM
Experimental: Inhibitory activity against biosynthesis of triglycerides The inhibitory activity of the compounds according to the present invention against the biosynthesis of triglycerides were studied using cell strain HepG2 derived from human hepatoma.
The test was carried out by the method of Nagata et al. (Biochem. Pharmacol., 40, 843 (1990)) and the method of Furukawa et al. (J. Biol. Chem., 267, 22630 (1992)) which had been partly modified. Specifically, HepG2 cells were cultivated in a Dulbecco's modified Eagle's medium (DMEM), containing 10% fetal calf serum (FCS), 100 units/ml penicillin, and 100 μg/ml streptomycin, placed in 96-well plates. Thereafter, the medium was replaced with DMEM containing 1% bovine serum albumin, and the test compound was simultaneously added to a final concentration of 3 μM or was not added, followed by cultivation. Three hr after the replacement of the medium, ^14C-acetic acid was added to a final concentration of 1 mM, followed by cultivation for additional 4 hr. The cells were washed with a phosphate buffer (pH 7.5) containing 150 mM sodium chloride. Thereafter, lipid within the cells was extracted with n-butanol. After the extraction, the extract was evaporated to dryness under a nitrogen gas stream. The residue was dissolved in a small amount of chloroform. The solution was developed in thin-layer chromatography (developing solvent petroleum ether:diethyl ether:acetic acid=90:15:3), and a ^14C-triglyceride fraction was isolated. The amount of […] produced was then quantitatively determined with a liquid scintillation counter (Beckman, LS-6500).
The inhibition (%) of the biosynthesis of triglycerides was calculated by the following equation:
Inhibition (%) of biosynthesis of triglycerides={1-(amount of ^14C-triglycerides produced in the presence of drug)/(amount of ^14C-triglycerides produced in the absence of drug)}×100.

[3] = system: wistar rats (male); assay: Acute toxicity test in rats; assay type: in vivo; conditions: orally administered 200 mg/kg, observed for 8 days
Experimental: (§1) An acute toxicity test was carried out using mice and rats by a conventional method.

[4] = system: ddY mice (male); assay: Acute toxicity test in mice; assay type: in vivo; conditions: orally administered 200 mg/kg, observed for 8 days
Experimental: as §1

SMILES | inhibition at 3 µM [1] | inhibition at 3 µM [2] | change in general states, such as reduction in body weight [3] | survival in acute toxicity test [3] | change in general states, such as reduction in body weight [4] | survival in acute toxicity test [4]
CC(C)=CCC/C(C)=C/CC/C(C)=C/CN1CCN(c2ccc3c(c2)C(=O)N(C2CCCCC2)C3)CC1 [Example 5, 2-Cyclohexyl-2,3-dihydro-6-[4-(trans,trans-farnesyl)piperazin-1-yl]-1H-isoindol-1-one] | 56% | 90% |  |  |  | 
O=C1c2cc(N3CCN(CCC(c4ccccc4)c4ccccc4)CC3)ccc2CN1C1CCCCC1 [Example 8, 2-Cyclohexyl-2,3-dihydro-6-[4-(3,3-diphenyl-1-propyl)piperazin-1-yl]-1H-isoindol-1-one] | 70% | 79% | any change in general states, such as a reduction in body weight, did not occur | survived | any change in general states, such as a reduction in body weight, did not occur | survived
CC(C)(C)OC(=O)N1CCN(c2ccc3c(c2)C(=O)N(C2CCCCC2)C3)CC1 [Example 30, 6-[4-(t-Butoxycarbonyl)piperazin-1-yl]-2-cyclo-hexyl-2,3-dihydro-1H-isoindol-1-one] | 68% | 89% |  |  |  | 
O=C1c2cc(N3CCN(CCC(c4ccccc4)c4ccccc4)CC3)ccc2CCN1C1CCCCC1 [Example 68, 2-Cyclohexyl-7-[4-(3,3-diphenyl-1-propyl)-piperazin-1-yl]-3,4-dihydro-2H-isoquinolin-1-one] | 61% | 64% |  |  |  | 
